In PMC7822874, “Chemoprotective antimalarials identified through quantitative high-throughput screening of Plasmodium blood and liver stage parasites” (Scientific Reports, 2021):

Legend:
HepG2 = conditions: human, hepg2 cells, 48 h
[1] = test system: Plasmodium falciparum Dd2 asexual blood stage parasites; assay: microbe, parasite or virus in culture; set-up: species or system Plasmodium falciparum Dd2 in human erythrocytes; single determination (one 11-point concentration-response curve); conditions: Plasmodium falciparum, DD2, Erythrocyte, 72 h; read-out: AC50
in vitro = conditions: human, hepg2 cells

Structure (SMILES) | Log AC50 (M) (HepG2) | AC50 [1] [µM] | CC50 at 48 h (in vitro) [µM]
CN(C)CCCNc1c2ccccc2nc2ccccc12 [MLS001198528-01] | -4.9143 | 4.22 | 12.2
CCOc1ccc(NS(=O)(=O)c2csc(C(N)=O)c2)cc1 [MLS001199948-01] | -4.6143 | 7.5 | 24.3
CCN(CC)CCNc1ccnc2cc(Cl)ccc12 [MLS000066547-01] | -4.5143 | 0.211 | 30.6
CCOc1ccccc1NC(=O)Nc1ccc2nc(N3CCN(C)CC3)cc(C)c2c1 [NCGC00126491-01] | -4.3643 | 1.33 | 43.2
O=C(O)c1ccccc1.OC(CNCC1CCCO1)Cn1c2ccc(Cl)cc2c2cc(Cl)ccc21 (stereo not drawn) [MLS000525403-01] | -4.4143 | 1.19 | 38.5
Cc1cc(N2CCN(C)CC2)nc2ccc(NC(=O)Nc3cccc(Cl)c3)cc12 [NCGC00126479-01] | -4.3643 | 4.22 | 43.2
CC(=O)C1=C(c2ccc(Cl)c(Cl)c2)N(C(C)=O)n2cnnc2S1 [NCGC00137238-01] | -4.3643 | 3.76 | 43.2
CCN(CC)CCCNC(=O)c1ccc2c(c1)N(Cc1c(F)cccc1Cl)C(=O)c1ccccc1S2 [NCGC00108146-01] | -4.4143 | 0.944 | 38.5
CCOc1ccc2nc(C)cc(Nc3ccc4c(c3)OCCO4)c2c1 [MLS000575119-01] | -4.4143 | 6.68 | 38.5
CN1CCC(Nc2ncc3ncnc(Nc4ccc(F)c(Cl)c4)c3n2)CC1.Cl.Cl [NCGC00161422-01] | -4.7643 | 10.6 | 17.2
Fc1cccc(NC(S)=NNc2c3ccccc3nc3ccccc23)c1 [MLS000660813-01] | -6.0143 | 15 | 0.968
Cc1ccc(Oc2c(C)[nH]c(-c3ccccc3)nc2=O)cc1 [MLS000851017-01] | -4.3643 | 5.31 | 43.2
CCCCC(=O)NC(c1ccccc1OC)c1ccc2cccnc2c1O (stereo not drawn) [MLS000715346-01] | -4.7643 | 5.31 | 17.2
COc1ccc2nc(C)cc(NCc3cccc(C(F)(F)F)c3)c2c1 [MLS001174340-01] | -4.5143 | 2.11 | 30.6
Oc1cccc(C(Nc2nccs2)c2ccc3cccnc3c2O)c1 (stereo not drawn) [MLS000760926-01] | -4.4143 | 7.5 | 38.5
CCN(CC)CCNC(=O)c1ccc(NC(=O)c2cn(-c3ccc(F)cc3)nc2-c2cccc(OC)c2)cc1 [MLS001233779-01] | -4.5143 | 9.44 | 30.6
C=C(C)COc1ccc(-c2n[nH]c(C)c2-c2ccccc2)c(O)c1 [MLS000083081-01] | -4.3643 | 4.73 | 43.2
COc1cc(Cl)c(NC2=CC(=O)C(=O)c3ccccc32)c(OC)c1 [MLS001360325-01] | -4.3643 | 1.68 | 43.2
CCCCN1C(=O)c2[nH]nc(-c3ccccc3O)c2C1c1ccc(OCc2ccccc2)cc1 (stereo not drawn) [NCGC00115502-01] | -4.3643 | 5.96 | 43.2
Cc1cccc(CN2CCCC(O)(CNCc3ncccc3C)C2=O)c1 (stereo not drawn) [NCGC00429062-01] | -4.4143 | 16.8 | 38.5
COc1ccc(-[n+]2c(-c3ccc(Br)cc3)cn3c2CCc2ccccc2-3)cc1.[Br-] [MLS000391920-01] | -4.3643 | 4.22 | 43.2
COc1cc(C2CC(=O)N(Cc3ccc(F)cc3)c3ccccc3S2)cc(OC)c1OC (stereo not drawn) [NCGC00112401-01] | -4.5643 | 2.11 | 27.3

Structure (SMILES) | Log AC50 (M) (HepG2) | AC50 [1] [µM] | CC50 at 48 h (in vitro) [µM]
CC1=C[C@@H](CNCc2cccnc2)[C@H](C(C)C)C[C@H]1Cc1nnc(-c2ccc(N(C)C)cc2)o1 [NCGC00421481-01] | -4.4643 | 5.31 | 34.3
CC1CCCCN1CCCNC(=O)c1ccc2c(c1)sc1nc(-c3ccc(F)cc3)cn12 (stereo not drawn) [NCGC00121681-01] | -4.5143 | 1.88 | 30.6
COc1cc2c(cc1OCc1ccccc1)N(C(=O)c1cc3ccccc3n1C)CC21CCN(C)CC1 [NCGC00419848-01] | -4.3643 | 2.11 | 43.2
CC(C)C[C@@H]1N[C@H](C(=O)NC(C)C)Cc2cn(Cc3ccncc3)c3cccc1c23 [NCGC00395386-01] | -4.3528 | 17.2 | 44.4
Cc1noc(C)c1Cc1ccc(C(=O)N2[C@H]3CC[C@@H]2c2cnc(-c4ccccc4)nc2C3)o1 [NCGC00458744-01] | -4.5643 | 9.44 | 27.3
CCOC(=O)CCCOc1cccn2c(=O)c(-c3cc(C)n(-c4ccc(Cl)cc4)n3)c(C)nc12 [NCGC00473250-01] | -4.8143 | 10.6 | 15.3
CC(Sc1nc2ccccc2c(=O)n1C)C(=O)N(C)C1CCCCC1 (stereo not drawn) [MLS001098006-01] | -4.3643 | 5.31 | 43.2
COc1ccc(NC(=O)OC[C@H]2C[C@@H]3CCN2C[C@@H]3c2cc(C3CCCC3)nc(-c3ccncc3)n2)cc1 [NCGC00421346-01] | -4.3643 | 4.22 | 43.2
CC(C)c1nc(-c2ccc(OC3CCN(C(=O)CCc4nc5ccccc5[nH]4)C3)cc2)no1 (stereo not drawn) [NCGC00441007-01] | -4.5643 | 15 | 27.3
CCCCC(=O)NC(c1cccc([N+](=O)[O-])c1)c1c(OC(C)=O)ccc2ccccc12 (stereo not drawn) [MLS000527046-01] | -4.3643 | 3.76 | 43.2
CCOc1ccc(C2=C(C(C)=O)Sc3nnc(C)n3N2C(C)=O)cc1 [NCGC00137200-01] | -4.3643 | 5.31 | 43.2
COc1ccc(/C=C/C(=O)Nc2ccc3nc4c(c(Nc5ccccc5OC)c3c2)CCCC4)cc1 [NCGC00104041-01] | -4.4643 | 3.35 | 34.3
CCC1CCCCN1CCCNC(=O)c1ccc2c(c1)sc1nc(-c3ccc(F)cc3)cn12 (stereo not drawn) [NCGC00121679-01] | -4.4643 | 1.5 | 34.3
CCN(CC)CCNC(=O)c1ccc(NC(=O)c2ccc(S(=O)(=O)N3CCCCCC3)cc2)cc1 [MLS001157553-01] | -4.4643 | 8.41 | 34.3
COc1cccc(Nc2ccc3c(n2)C(C)(C(=O)NC2CCN(C)CC2)CN(C)C3)c1 (stereo not drawn) [NCGC00414505-01] | -4.2528 | 17.2 | 55.9
CC(C)(C)OC(=O)N1CCC(c2c(C(=O)NCCN3CCC(Cc4ccccc4)CC3)cnn2-c2ccc(F)cc2)CC1 [NCGC00126694-01] | -4.3643 | 5.31 | 43.2
FC(F)(F)c1cnc(N2CCCN(C(S)=Nc3ccccc3)CC2)c(Cl)c1 [MLS000833545-01] | -4.3643 | 4.73 | 43.2
CCN1C(=O)C2(CCN([S+](=O)([O-])c3ccc(Cl)cc3C)CC2)c2ccccc21 [NCGC00435870-01] | -4.4643 | 5.31 | 34.3
O=C(Nc1ccc(C(F)(F)F)cc1)N1CCN(c2ccnc3cc(Cl)ccc23)CC1 [MLS000830170-01] | -4.6143 | 5.31 | 24.3
CC(C)(C)c1ccc(-c2cc(C[C@H]3CNCC[C@H]3CC(=O)N3CCN(c4ccccn4)CC3)no2)cc1 [NCGC00400637-01] | -4.4143 | 15 | 38.5
CN(C)CCNC(=O)c1cc2c(s1)-c1ccc(Cl)cc1SC2 [MLS001198989-01] | -4.4643 | 13.3 | 34.3
